Results taken from ChEMBL document CHEMBL3507680, “University of Dundee, Gates Library screen for HepG2 cell viability”.

Experiment: Human HepG2 cell viability assay in 384 well format
Assay type: toxicity, cell-based
Design: dose 125 nL, time 70.5 hour; cytotoxicity at 70.5 h: concentration not given beside the values
Settings: HepG2 cells, read-out: Inhibition

SMILES | cytotoxicity at 70.5 h [%]
COc1c(C2CCCN2C(=O)c2cnc[nH]2)c(C)nn1C (stereo unspecified) | -2.57
Cc1csc(NC(=O)CN2CCCC(Cn3nc(C)nc3C)C2)n1 (stereo unspecified) | -7.51
CCc1noc(CN(C)CCC(=O)Nc2ccc(C#N)c(Cl)c2)n1 | 0.733
Cc1n[nH]c(C)c1-c1cc(-c2ccc[nH]2)nc(N)c1C#N | -10.2
CN(C)c1nccc(N(C)C2CCN(CC3CCOC3)CC2)n1 (stereo unspecified) | -4.93
O=C1CSc2ccccc2N1Cc1noc(C2CCCO2)n1 (stereo unspecified) | -5.67
CC(=O)N1CCCC1c1nnn2cc(NCc3cccnc3)ccc12 (stereo unspecified) | -18.3
CC(C)c1cc(-c2nn3c(C(C)C)nnc3s2)[nH]n1 | -11.4
CS(=O)(=O)N1CCC2(CC1)CN(CCn1cccn1)C(=O)CO2 | 8.7
COc1ccc(NC(=O)c2cnc(C3CCN(C)CC3)nc2C)cc1 | -2.26
CC(COc1ccccc1)NCc1nncn1C1CCCCC1 (stereo unspecified) | 7.54
CCOC(C(=O)N1CCn2c(CC)nnc2C1)c1ccccc1 (stereo unspecified) | -11.9
Cc1noc(C)c1Cn1cc(I)cc(C)c1=O | 4.77
Cc1n[nH]c(C2CN(C(=O)c3ccc4c(c3)CCCC4)CCO2)n1 (stereo unspecified) | 21
COc1ccsc1C(=O)NCCNc1ccccc1 | -2.66
COCC[C@]1(O)CCN(C(=O)c2cnn(C)c2)C[C@H]1C | -0.906
COc1cccc([C@@H]2CN(C3CCCC3)C[C@H]2C(=O)O)c1 | -2.63
CCc1ccccc1OC1CN(C(=O)c2cccs2)C1 | 7.24
COc1ccc(CCNC(=O)NC2CC(=O)N(c3ccccc3)C2)cc1 (stereo unspecified) | 49

SMILES | cytotoxicity at 70.5 h [%]
CCOc1cc(NC(=O)N2CCC(c3nnc[nH]3)CC2)ccc1C | -0.547
CC(=O)c1cccc(CN2CC(Oc3ccccc3C)C2)c1 | -3.39
c1ccc(OCCN2CCN(c3ncnc4[nH]ccc34)CC2)cc1 | 24.7
COCC1CN(Cc2cc(C)on2)Cc2cnn(C)c21 (stereo unspecified) | -3.91
Cc1cccc(N2CCc3ncc(CNS(C)(=O)=O)n3CC2)n1 | -11.6
OC1(CN2CCC(Oc3cccc(C(F)(F)F)c3)CC2)CCNC1 (stereo unspecified) | -7.31
COCC(=O)NC1CC2(CCN(CCN(C)C)CC2)c2ccccc21 (stereo unspecified) | -2.09
COc1cc(N2CCn3cc(CNc4ccccn4)nc3C2)ncn1 | 2.02
O=C(Cn1cccn1)NCC1CCCN(Cc2ccccc2)C1 (stereo unspecified) | -20.2
Cc1ccc(C(C(=O)N2CCC(Cc3noc(C)n3)CC2)N(C)C)cc1 (stereo unspecified) | -8.55
CCc1noc(C)c1C(=O)N1CCCCC1Cn1cc(C)cn1 (stereo unspecified) | 46.7
Cc1[nH]nc(CCC(=O)NCC2COc3ccccc3C2)c1C (stereo unspecified) | -6.82
CSC(CNS(N)(=O)=O)c1cccc(Cl)c1 (stereo unspecified) | -1.44
c1cc(CN2C[C@@H]3OCCN(CCN4CCCC4)[C@@H]3C2)co1 | -10.1
Cc1ccc(CC(=O)NC2CCN(c3cccc(Cl)c3)C2)cn1 (stereo unspecified) | 22.6
O=C(Nc1ccccc1-c1ccccc1)NC1CCC2(C1)OCCO2 (stereo unspecified) | 27.5
O=C(c1ccccn1)N1CCC2(CNS(=O)(=O)c3cnccc3O2)C1 (stereo unspecified) | 17.6
c1cncc(COCC2C[C@@H]3OCCN(Cc4cccnc4)[C@H]3C2)c1 (stereo partly specified) | -2.24
CC(=O)Nc1nc(CN2CCn3c(nnc3C(C)C)C2)cs1 | -4.17

SMILES | cytotoxicity at 70.5 h [%]
COCCn1ccc2c(C(=O)Nc3nc4c(s3)CCC4)cccc21 | -1.37
CCN(Cc1nc(COC)no1)Cc1cccnc1NC(=O)C(C)(C)C | -9.55
CCNC(=O)NC(=O)CNc1cccc(C(=O)c2ccccc2)c1 | -12.7
CN(CC1(CO)CCC1)C(=O)C1CCC(=O)N(Cc2ccc(Cl)cc2)C1 (stereo unspecified) | -1.24
Cc1nc(S(=O)(=O)N2CCc3[nH]nc(CCC(C)C)c3C2)cn1C | -6.22
CC(C)S(=O)(=O)c1nnc(CCNC(=O)OC(C)(C)C)o1 | 29.5
Fc1cccc(N2CCOC3(CCCN(c4nncs4)C3)C2)c1 (stereo unspecified) | -2.67
NC(=O)c1ccc(-n2ccnc2C2CC2)cc1N1CCCC1 | -3.29
Cc1noc(CCNC(=O)NCc2ccc(OC3CCCC3)cc2)n1 | 0.994
OC(CN1CCC(c2ccn[nH]2)CC1)c1ccccc1F (stereo unspecified) | -4.73
COc1ccc(C(=O)N2CCC(Oc3ccccc3)(C(=O)O)CC2)o1 | 2.93
O=C(NC1CCCC1)C1(Cc2cc(C3CCOC3)no2)CCNCC1 (stereo unspecified) | -5
CN(C)S(=O)(=O)N1CCCC1C(=O)N1CCSCC1 (stereo unspecified) | 22.8
CC1CCN(S(=O)(=O)NCc2ccccc2Cn2cccn2)CC1 | 14.5
COc1ccc2[nH]nc(CN3CCC(C(C)N4CCCC4)CC3)c2c1 (stereo unspecified) | -1.99
Cc1c(C(=O)N2CCCC2c2cnn(C)c2)nnn1-c1ccccc1 (stereo unspecified) | -7.15
Cc1nc(C)n(C2CCCN(C(=O)c3ccc(CN(C)C)cc3)C2)n1 (stereo unspecified) | -4.23
CN1CCN(CC2(O)CCCN(C(=O)Cc3cccc(O)c3)CC2)CC1 (stereo unspecified) | -12.4
